We go through twelve molecules from the OPERA property sets (Mansouri et al. 2018).

Structures are written as SMILES. In brackets after ≈: the same amount, converted by molar mass.

Conditions in one series: not given
As usually defined, the logP is a log measure of how a compound divides between an organic and an aqueous phase. A lower logP goes with a more hydrophilic compound. For `CCOP(=O)(OCC)SCS(=O)(=O)CC`, the logP worked out at 1.98.

The same series, now with this note: 20 °C.
One may read the solubility as how much of the substance goes into solution per volume. Read a high solubility as much dissolved substance. In turn, `COP(=S)(OC)SCSc1ccc(Cl)cc1` came in with a solubility of 5.08 µM (≈ 1.6 µg/mL).
Regarding `CCOP(=O)(OCC)OC(=CCl)c1ccc(Cl)cc1Cl`, the solubility stood at 345 µM (≈ 124 µg/mL).
On to `COP(=S)(OC)SCN1C(=O)c2ccccc2C1=O`, for which the solubility is 76.9 µM (≈ 24.4 µg/mL).
Regarding `COc1nn(CSP(=S)(OC)OC)c(=O)s1`, the solubility came out at 619 µM (≈ 187 µg/mL).
In the case of `CCOC(=O)CC(SP(=S)(OC)OC)C(=O)OCC` (configuration not stated), the solubility came to 433 µM (≈ 143 µg/mL).
On to `COP(=S)(OC)Oc1ccc(SC)c(C)c1`, for which the solubility turned out to be 26.9 µM (≈ 7.5 µg/mL).
As for `COP(=S)(OC)Oc1ccc([N+](=O)[O-])cc1Cl`, the solubility amounted to 49.4 µM (≈ 14.7 µg/mL).
On the same count and under the same terms, for `CCOP(=S)(OCC)SCn1nnc2ccccc2c1=O` the value was 30.4 µM (≈ 10.5 µg/mL); for `CNC(=O)Oc1ccccc1OC(C)C`, 8890 µM (≈ 1860 µg/mL).
In turn, `CNC(=O)Oc1ccc(N(C)C)c(C)c1` showed a solubility of 4390 µM (≈ 915 µg/mL).
`COP(=S)(OC)Oc1ccc([N+](=O)[O-])cc1` came in with a solubility of 143 µM (≈ 37.7 µg/mL).
